Assay results: article PMC10709440, “High-throughput ligand profile characterization in novel cell lines expressing seven heterologous insect olfactory receptors for the detection of volatile plant biomarkers” (Scientific Reports, 2023)
Several values for one entry are separate records, joined by “and”; a condition that tells them apart may be missing. Equal entries are not always repeated.

Columns and labels:
Drosophila OR10a = molecular target: T1, Drosophila OR10a (Drosophila melanogaster, UniProt Q9VYZ1); test: Calcium ion fluorescence (GCaMP6) assay, OR10a stable HEK293 cell line; format: cell-based; details: for activation at 1 µM: HEK293, 1 μM VOC; for activation at 1 µM / activation at 10 µM / activation at 100 µM: 50 μM VUAA1 = 1, responses not exceeding 0.05 considered 0, read-out: OR10a Average response (VUAA1-normalized); for activation at 10 µM: HEK293, 10 μM VOC; for activation at 100 µM: HEK293, 100 μM VOC; for OR10a response (VUAA1-normalized) at 1 μM / OR10a response (VUAA1-normalized) at 10 μM / OR10a response (VUAA1-normalized) at 100 μM: OR10a cell line; for OR10a response (VUAA1-normalized) at 1 μM: VOC concentration 1 μM; for OR10a response (VUAA1-normalized) at 10 μM: VOC concentration 10 μM; for OR10a response (VUAA1-normalized) at 100 μM: VOC concentration 100 μM; for DF norm AVERAGE OR10a: threshold 0.05, below shown as 0
T1 construct: expressed in transfected cells
T1 sequence (Q9VYZ1 1-406): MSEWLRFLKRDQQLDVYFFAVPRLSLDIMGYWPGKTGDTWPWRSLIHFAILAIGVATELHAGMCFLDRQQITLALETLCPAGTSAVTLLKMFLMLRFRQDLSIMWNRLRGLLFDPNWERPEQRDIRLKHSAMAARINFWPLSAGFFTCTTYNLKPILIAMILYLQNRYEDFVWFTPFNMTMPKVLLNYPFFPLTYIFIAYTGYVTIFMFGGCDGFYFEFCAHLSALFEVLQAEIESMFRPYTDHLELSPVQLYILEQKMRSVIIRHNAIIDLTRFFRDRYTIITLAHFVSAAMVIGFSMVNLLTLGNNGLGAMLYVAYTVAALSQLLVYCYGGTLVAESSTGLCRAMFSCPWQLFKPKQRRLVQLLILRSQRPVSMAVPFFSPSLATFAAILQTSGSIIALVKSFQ
T1 sequence (Q9VNB5 1-486 partner): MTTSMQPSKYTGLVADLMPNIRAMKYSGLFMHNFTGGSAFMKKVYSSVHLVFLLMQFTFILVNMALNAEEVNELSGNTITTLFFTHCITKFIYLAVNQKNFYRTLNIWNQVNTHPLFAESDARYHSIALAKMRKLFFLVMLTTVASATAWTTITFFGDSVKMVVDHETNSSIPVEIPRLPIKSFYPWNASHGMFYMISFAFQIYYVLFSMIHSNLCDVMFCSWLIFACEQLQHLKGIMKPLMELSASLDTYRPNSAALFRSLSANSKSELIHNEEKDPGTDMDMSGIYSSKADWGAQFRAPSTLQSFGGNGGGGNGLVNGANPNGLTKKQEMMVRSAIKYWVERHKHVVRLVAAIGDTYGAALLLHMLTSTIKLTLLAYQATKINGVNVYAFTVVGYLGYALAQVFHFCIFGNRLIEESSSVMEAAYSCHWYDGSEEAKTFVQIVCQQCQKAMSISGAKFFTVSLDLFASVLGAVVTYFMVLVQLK
How it was run: (§1)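 HEK293 lines stably expressing each Drosophila OR with GCaMP6, doxycycline-induced (1 μg/mL) 48 or 72 h. Fluorescence recorded 5 s baseline then 30 s after VOC injection at pH 7.3; ΔF=(FMAX−F0)/F0, normalized to 50 µM VUAA1 response per line, triplicate wells averaged; concentration series 0.01–100 μM.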

Drosophila OR85b = molecular target: T2, Drosophila OR85b (Drosophila melanogaster, UniProt Q9VHQ7); test: Calcium ion fluorescence (GCaMP6) assay, OR85b stable HEK293 cell line; format: cell-based; details: for OR85b response (VUAA1-normalized) at 1 μM / OR85b response (VUAA1-normalized) at 10 μM / OR85b response (VUAA1-normalized) at 100 μM / Average response: OR85b cell line; for OR85b response (VUAA1-normalized) at 1 μM: VOC concentration 1 μM; for OR85b response (VUAA1-normalized) at 10 μM: VOC concentration 10 μM; for OR85b response (VUAA1-normalized) at 100 μM: VOC concentration 100 μM; for Average response: VUAA1-normalized response, mean of biological replicates; for DF norm AVERAGE OR85b: threshold 0.05, below shown as 0
T2 construct: expressed in transfected cells
T2 sequence (Q9VHQ7 1-390): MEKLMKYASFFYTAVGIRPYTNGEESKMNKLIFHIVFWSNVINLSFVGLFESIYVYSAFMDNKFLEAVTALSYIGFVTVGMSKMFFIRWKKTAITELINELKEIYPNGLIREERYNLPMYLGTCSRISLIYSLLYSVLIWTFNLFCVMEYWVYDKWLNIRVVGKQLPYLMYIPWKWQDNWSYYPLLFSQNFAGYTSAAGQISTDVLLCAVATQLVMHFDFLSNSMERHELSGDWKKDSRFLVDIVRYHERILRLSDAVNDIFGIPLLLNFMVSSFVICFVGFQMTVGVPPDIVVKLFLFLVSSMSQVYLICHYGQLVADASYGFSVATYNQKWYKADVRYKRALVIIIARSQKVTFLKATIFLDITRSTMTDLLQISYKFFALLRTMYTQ
T2 sequence (Q9VNB5 1-486 partner): T1 sequence (Q9VNB5 1-486 partner)
How it was run: as §1

[1] = 100 µM, OR10a clone G5, single plate 2019.12.05
[2] = ligand concentration 1 (unit not given)
[3] = ligand concentration 10 (unit not given)
[4] = ligand concentration 100 (unit not given)
[5] = HEK293, read-out: OR85b Average response (VUAA1-normalized)

COC(=O)c1ccccc1 [methyl benzoate]
DF norm, all technical replicates (Drosophila OR10a; [1]): 0.8079
DF norm, outlier technical replicates removed (Drosophila OR10a; [1]): 0.8079
DF, outlier technical replicates removed (Drosophila OR10a; [1]): 1.408
DF, all technical replicates (Drosophila OR10a; 100 µM, OR10a clone G5, single plate 2019.12.05, xc+0.1%DMSO): 1.408
EC50 (Drosophila OR10a; EC50, all technical replicates, single-concentration estimate from 100 µM, OR10a clone G5, plate 2019.12.05): 23.8 µM
EC50 (Drosophila OR10a; EC50, outlier technical replicates removed, single-concentration estimate from 100 µM, OR10a clone G5, plate 2019.12.05): 23.8 µM
activation at 1 µM (Drosophila OR10a): 31%
activation at 10 µM (Drosophila OR10a): 64%
activation at 100 µM (Drosophila OR10a): 67%
OR10a response (VUAA1-normalized) at 1 μM (Drosophila OR10a): 0.31
OR10a response (VUAA1-normalized) at 10 μM (Drosophila OR10a): 0.64
OR10a response (VUAA1-normalized) at 100 μM (Drosophila OR10a): 0.67
DF norm AVERAGE OR10a (Drosophila OR10a; [2]): 0.3063
DF norm AVERAGE OR10a (Drosophila OR10a; [3]): 0.6425
DF norm AVERAGE OR10a (Drosophila OR10a; [4]): 0.6719
OR85b response (VUAA1-normalized) at 1 μM (Drosophila OR85b): 0.00
OR85b response (VUAA1-normalized) at 10 μM (Drosophila OR85b): 0.00
OR85b response (VUAA1-normalized) at 100 μM (Drosophila OR85b): 0.00
Average response (Drosophila OR85b; cc. 1 µM): 0.00
Average response (Drosophila OR85b; cc. 10 µM): 0.00
Average response (Drosophila OR85b; cc. 100 µM): 0.00
DF norm AVERAGE OR85b (Drosophila OR85b; [2]): 0
DF norm AVERAGE OR85b (Drosophila OR85b; [3]): 0
DF norm AVERAGE OR85b (Drosophila OR85b; [4]): 0

COC(=O)c1ccccc1O [methyl salicylate]
EC50 (Drosophila OR10a; AVERAGE EC50, from the average LOG EC50 of 5 biological replicates, unit inferred): 0.0755 µM
EC50 (Drosophila OR10a; EC50, FITTED AVERAGE CURVE, fit of the averaged dose-response curve, unit inferred): 0.0686 µM
EC50 (Drosophila OR10a; EC50, OR10a cell line, fitted Hill equation, Hill coefficient constrained to 1, maximal response max 1): 0.08 µM
EC50 (Drosophila OR10a; EC50 AVERAGE (arithmetic average of fitted EC50), average of 5 biological replicates, unit inferred): 0.0901 µM
activation at 1 µM (Drosophila OR10a): 49%
activation at 10 µM (Drosophila OR10a): 55%
activation at 100 µM (Drosophila OR10a): 95%
Emax (Drosophila OR10a; HEK293, read-out: VUAA1 normalized MAX response): 44%
n, FITTED AVERAGE CURVE (Drosophila OR10a; Hill coefficient of the fit of the averaged curve): 0.855
OR10a response (VUAA1-normalized) at 1 μM (Drosophila OR10a): 0.49
OR10a response (VUAA1-normalized) at 10 μM (Drosophila OR10a): 0.55
OR10a response (VUAA1-normalized) at 100 μM (Drosophila OR10a): 0.95
AVERAGE MAX (Drosophila OR10a; average of 5 biological replicates): 0.4437
response, AVERAGE (Drosophila OR10a; concentration 0.008, average of biological replicates): 0.06886
response, AVERAGE (Drosophila OR10a; concentration 0.016, average of biological replicates): 0.1014
response, AVERAGE (Drosophila OR10a; concentration 0.032, N 1): 0.1576
response, AVERAGE (Drosophila OR10a; concentration 0.075, average of biological replicates): 0.2051
response, AVERAGE (Drosophila OR10a; concentration 0.15, average of biological replicates): 0.2778
response, AVERAGE (Drosophila OR10a; concentration 0.3, average of biological replicates): 0.4027
response, AVERAGE (Drosophila OR10a; concentration 0.6, average of biological replicates): 0.307
response, AVERAGE (Drosophila OR10a; concentration 1.25, average of biological replicates): 0.417
response, AVERAGE (Drosophila OR10a; concentration 2.5, average of biological replicates): 0.471
response, AVERAGE (Drosophila OR10a; concentration 5, average of biological replicates): 0.4362
response, AVERAGE (Drosophila OR10a; concentration 10, average of biological replicates): 0.4759
response, AVERAGE (Drosophila OR10a; concentration 20, average of biological replicates): 0.4313
response, AVERAGE (Drosophila OR10a; concentration 40, average of biological replicates): 0.3644
MAX, fitted average curve (Drosophila OR10a; fit of the averaged dose-response curve): 0.4394
MAX (fitted parameter) (Drosophila OR10a; individual biological replicates, normalized response): 0.4829 and 0.2572 and 0.5237 and 0.5964 and 0.3582
DF norm AVERAGE OR10a (Drosophila OR10a; [2]): 0.4904
DF norm AVERAGE OR10a (Drosophila OR10a; [3]): 0.5549
DF norm AVERAGE OR10a (Drosophila OR10a; [4]): 0.9525
activation at 1 µM (Drosophila OR85b; [5]): 0%
activation at 10 µM (Drosophila OR85b; [5]): 3%
activation at 100 µM (Drosophila OR85b; [5]): 13%
OR85b response (VUAA1-normalized) at 1 μM (Drosophila OR85b): 0.00
OR85b response (VUAA1-normalized) at 10 μM (Drosophila OR85b): 0.00
OR85b response (VUAA1-normalized) at 100 μM (Drosophila OR85b): 0.13
Average response (Drosophila OR85b; cc. 1 µM): 0.00
Average response (Drosophila OR85b; cc. 10 µM): 0.0263
Average response (Drosophila OR85b; cc. 100 µM): 0.13
DF norm AVERAGE OR85b (Drosophila OR85b; [2]): 0
DF norm AVERAGE OR85b (Drosophila OR85b; [3]): 0
DF norm AVERAGE OR85b (Drosophila OR85b; [4]): 0.1286

CCCCCCCCC=O [nonanal]
activation at 1 µM (Drosophila OR10a): 0%
activation at 10 µM (Drosophila OR10a): 3%
activation at 100 µM (Drosophila OR10a): 0%
OR10a response (VUAA1-normalized) at 1 μM (Drosophila OR10a): 0.00
OR10a response (VUAA1-normalized) at 10 μM (Drosophila OR10a): 0.00
OR10a response (VUAA1-normalized) at 100 μM (Drosophila OR10a): 0.00
DF norm AVERAGE OR10a (Drosophila OR10a; [2]): 0
DF norm AVERAGE OR10a (Drosophila OR10a; [3]): 0
DF norm AVERAGE OR10a (Drosophila OR10a; [4]): 0
OR85b response (VUAA1-normalized) at 1 μM (Drosophila OR85b): 0.00
OR85b response (VUAA1-normalized) at 10 μM (Drosophila OR85b): 0.00
OR85b response (VUAA1-normalized) at 100 μM (Drosophila OR85b): 0.00
Average response (Drosophila OR85b; cc. 1 µM): 0.00
Average response (Drosophila OR85b; cc. 10 µM): 0.00
Average response (Drosophila OR85b; cc. 100 µM): 0.00
DF norm AVERAGE OR85b (Drosophila OR85b; [2]): 0
DF norm AVERAGE OR85b (Drosophila OR85b; [3]): 0
DF norm AVERAGE OR85b (Drosophila OR85b; [4]): 0
